Tests used:
Experiment in all cases: Bliss excess, mean over the matrix (fraction); higher = more synergy
[1] = test system: YT (Other Blood Carcinomas)
How it was run: (§1)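 After 24 hours at 37°C and 5% CO2 in 1536-well plates, cells in DMEM/F12 or RPMI plus 10% FBS received two-drug dose matrices for 72 hours. Viability came from CellTiter-Glo 2.0 luminescence and was scaled as inhibition, anchored at 0 by vehicle wells and at 1 by blank wells. Combination Emax is taken as the second-highest inhibition in the matrix, and Bliss excess as the observed combination effect less EA + EB − EA·EB, with EA and EB the single-agent effects.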

[2] = test system: U-118-MG (Low Grade Glioma)
How it was run: as §1

[3] = test system: SK-UT-1 (Other Solid Carcinomas)
How it was run: as §1

[4] = test system: NOMO-1 (Acute Myeloid Leukemia)
How it was run: as §1

[5] = test system: SKN-3 (Head and Neck Carcinoma)
How it was run: as §1

[6] = test system: HLE (Hepatocellular Carcinoma)
How it was run: as §1

[7] = test system: JHH-6 (Hepatocellular Carcinoma)
How it was run: as §1

HCC38 (Breast Carcinoma) = test system: HCC38 (Breast Carcinoma)
How it was run: as §1

[8] = test system: HOP-92 (Non-Small Cell Lung Carcinoma)
How it was run: as §1

[9] = test system: HCT-116 (Colorectal Carcinoma)
How it was run: as §1

[10] = test system: DOK (Oral Cavity Carcinoma)
How it was run: as §1

[11] = test system: MES-SA (Other Solid Carcinomas)
How it was run: as §1

CS1 (Chondrosarcoma) = test system: CS1 (Chondrosarcoma)
How it was run: as §1

[12] = test system: HCC1143 (Breast Carcinoma)
How it was run: as §1

[13] = test system: PA-TU-8902 (Pancreatic Carcinoma)
How it was run: as §1

MCF7 (Breast Carcinoma) = test system: MCF7 (Breast Carcinoma)
How it was run: as §1

[14] = test system: NCI-H1688 (Small Cell Lung Carcinoma)
How it was run: as §1

[15] = test system: EKVX (Non-Small Cell Lung Carcinoma)
How it was run: as §1

[16] = test system: 647-V (Bladder Carcinoma)
How it was run: as §1

[17] = test system: SW948 (Colorectal Carcinoma)
How it was run: as §1

SMILES	Bliss excess [1]	Bliss excess [2]	Bliss excess [3]	Bliss excess [4]	Bliss excess [5]	Bliss excess [6]	Bliss excess [7]	Bliss excess (HCC38 (Breast Carcinoma))	Bliss excess [8]	Bliss excess [9]	Bliss excess [10]	Bliss excess [11]	Bliss excess (CS1 (Chondrosarcoma))	Bliss excess [12]	Bliss excess [13]	Bliss excess (MCF7 (Breast Carcinoma))	Bliss excess [14]	Bliss excess [15]	Bliss excess [16]	Bliss excess [17]
C=CCn1c(=O)c2cnc(Nc3ccc(N4CCN(C)CC4)cc3)nc2n1-c1cccc(C(C)(C)O)n1 [AZD1775] + O=C(c1cc(Cc2n[nH]c(=O)c3ccccc23)ccc1F)N1CCN(C(=O)C2CC2)CC1 [Olaparib] (first compound max 1 µM, partner max 10 µM)	-0.008	-0.0766	-0.0148	-0.027	-0.0512	-0.0567	0.02	-0.068	-0.0181	-0.0239	-0.0236	-0.0694	0.0057	-0.0675	-0.0327	0.003	-0.0142	-0.0564	0.0046	–
CN(C)CCCOc1ccc(-c2ccc3ncc4c(c3c2)n(C2CCOCC2)c(=O)n4C)cn1 [AZD0156] + CCN(CCO)CCCOc1ccc2c(Nc3cc(CC(=O)Nc4cccc(F)c4)[nH]n3)ncnc2c1 [AZD2811] (first compound max 1 µM, 7x7, partner max 1 µM)	0.0041	0.0017	0.0253	0.0759	-0.0239	0.0189	-0.0083	-0.0451	0.0242	0.0233	-0.0527	0.0836	-0.0074	0.0372	-0.0223	-0.0114	0.0018	-0.0473	0.0365	–
CCN(CCO)CCCOc1ccc2c(Nc3cc(CC(=O)Nc4cccc(F)c4)[nH]n3)ncnc2c1 [AZD2811] + C=CCn1c(=O)c2cnc(Nc3ccc(N4CCN(C)CC4)cc3)nc2n1-c1cccc(C(C)(C)O)n1 [AZD1775] (first compound max 1 µM, partner max 1 µM)	0.0367	0.0469	0.108	0.0412	-0.0154	0.09	0.0092	-0.0672	-0.0161	0.0524	-0.0017	0.0752	0.0264	0.0147	-0.006	0.0165	-0.006	-0.0599	0.0491	–
CCN(CCO)CCCOc1ccc2c(Nc3cc(CC(=O)Nc4cccc(F)c4)[nH]n3)ncnc2c1 [AZD2811] + C[C@@H]1COCCN1C2=NC(=NC(=C2)C3(CC3)[S@](=N)(=O)C)C4=C5C=CNC5=NC=C4 [AZD6738] (first compound max 1 µM, 7x7, partner max 10 µM)	-0.0204	-0.0337	0.0317	-0.0118	-0.0167	0.0179	-0.0342	-0.0372	0.0305	-0.0825	-0.0502	-0.0328	-0.0842	-0.0291	-0.0532	-0.0565	-0.0054	-0.0558	0.0177	–
CN(C)CCCOc1ccc(-c2ccc3ncc4c(c3c2)n(C2CCOCC2)c(=O)n4C)cn1 [AZD0156] + C[C@@H]1COCCN1C2=NC(=NC(=C2)C3(CC3)[S@](=N)(=O)C)C4=C5C=CNC5=NC=C4 [AZD6738] (first compound max 1 µM, 7x7, partner max 10 µM)	0.0104	0.0189	0.0126	0.0095	0.0368	0.0261	-0.01	-0.0689	-0.0145	-0.0047	-0.0395	0.0509	0.0088	0.0323	-0.0007	0.0578	-0.0004	-0.0388	0.0039	–
C[C@@H]1COCCN1c1cc(C2([S@](C)(=N)=O)CC2)nc(-c2ccnc3[nH]ccc23)n1 [AZD6738] + O=C(c1cc(Cc2n[nH]c(=O)c3ccccc23)ccc1F)N1CCN(C(=O)C2CC2)CC1 [Olaparib] (first compound max 10 µM, 7x7, partner max 10 µM)	-0.0376	0.0125	0.0408	-0.0031	-0.0217	-0.0562	-0.0039	0.0122	0.0158	0.0928	0.0048	-0.0519	0.0318	-0.0284	-0.0251	0.0135	0.0133	0.0206	0.0753	–
Cc1c2c(nn1C)CSCc1cc(n(C)n1)CSc1cc(c3ccccc3c1)OCCCc1c(C(=O)O)n(C)c3c-2c(Cl)ccc13 [AZD5991] + Cc1cc2ncnn2cc1Nc1ncc2c(n1)n(C1CCOCC1)c(=O)n2C [AZD7648] (first compound max 1 µM, 7x7, partner max 10 µM)	0.0305	-0.0098	-0.0252	0.0486	-0.032	-0.0253	-0.0622	-0.0418	-0.0332	0.013	0.0115	0.0111	-0.0282	0.0124	–	0.0011	-0.0093	-0.069	0.0281	-0.0328
CCN(CCO)CCCOc1ccc2c(Nc3cc(CC(=O)Nc4cccc(F)c4)[nH]n3)ncnc2c1 [AZD2811] + O=C(c1cc(Cc2n[nH]c(=O)c3ccccc23)ccc1F)N1CCN(C(=O)C2CC2)CC1 [Olaparib] (first compound max 1 µM, 7x7, partner max 10 µM)	0.0623	0.0186	0.0453	0.0454	-0.0236	0.004	-0.0127	-0.003	-0.0048	-0.0109	-0.0086	0.0754	-0.0515	0.015	0.0081	-0.0023	-0.0131	-0.0303	0.0433	–
NC1(C(=O)N[C@@H](CCO)c2ccc(Cl)cc2)CCN(c2ncnc3[nH]ccc23)CC1 [Capivasertib] + COc1nnc2ccc(N3CCC(c4ccc(OCCN5CCN(C)C(=O)[C@H]5C)cc4)CC3)nn12 [AZD5153] (first compound max 10 µM, 7x7, partner max 1 µM)	0.007	0.057	0.0637	-0.0061	0.0027	-0.0096	-0.0365	-0.022	-0.0027	0.0331	0.03	0.0276	0.0057	-0.0035	-0.0841	-0.0413	0.001	–	-0.0536	-0.0082
CS(=O)(=O)CCNCc1ccc(-c2ccc3ncnc(Nc4ccc(OCc5cccc(F)c5)c(Cl)c4)c3c2)o1 [Lapatinib] + C[C@@H](Oc1cc(-c2cnn(C3CCNCC3)c2)cnc1N)c1c(Cl)ccc(F)c1Cl [Crizotinib] (first compound max 10 µM, 7x7, partner max 10 µM)	-0.081	-0.0194	-0.0392	-0.0755	-0.0299	-0.072	-0.0262	-0.0049	-0.0051	-0.0748	-0.0302	-0.0302	-0.0093	-0.0312	0.0068	-0.0386	-0.0764	–	0.0097	-0.0834
CC(=O)c1c(C)c2cnc(Nc3ccc(N4CCNCC4)cn3)nc2n(C2CCCC2)c1=O [Palbociclib] + Cc1c2c(nn1C)CSCc1cc(n(C)n1)CSc1cc(c3ccccc3c1)OCCCc1c(C(=O)O)n(C)c3c-2c(Cl)ccc13 [AZD5991] (first compound max 10 µM, 7x7, partner max 1 µM)	0.0006	-0.0201	0.0096	-0.0915	-0.0428	-0.0339	-0.0212	-0.0244	0.013	-0.0075	-0.0363	-0.05	-0.035	0.0011	-0.0469	-0.103	0.0284	–	-0.0442	0.0058
Cn1cnc2c(F)c(Nc3ccc(Br)cc3Cl)c(C(=O)NOCCO)cc21 [Selumetinib] + C[C@@H]1COCCN1C2=NC(=NC(=C2)C3(CC3)[S@](=N)(=O)C)C4=C5C=CNC5=NC=C4 [AZD6738] (first compound max 10 µM, 7x7, partner max 10 µM)	-0.064	0.0263	-0.0511	-0.0299	0.0257	-0.0665	-0.0064	-0.0706	-0.0029	-0.0093	0.0628	0.0021	-0.0706	-0.0207	0.0428	-0.0558	-0.0217	–	0.0218	-0.0114
CCc1c2c(nc3ccc(O)cc13)-c1cc3c(c(=O)n1C2)COC(=O)[C@]3(O)CC [SN-38] + O=C(c1cc(Cc2n[nH]c(=O)c3ccccc23)ccc1F)N1CCN(C(=O)C2CC2)CC1 [Olaparib] (first compound max 0.3 µM, 7x7, partner max 10 µM)	-0.0409	–	0.057	0.0544	–	0.0335	0.032	0.0331	–	0.104	0.0284	–	0.0141	–	0.086	0.0115	0.0337	0.0027	–	0.0993
COc1cc2ncnc(Nc3ccc(F)c(Cl)c3)c2cc1OCCCN1CCOCC1 [Gefitinib] + CC(C)n1c(=O)n(C)c2cnc3cc(F)c(-c4ccc(OCCCN5CCCCC5)nc4)cc3c21 [AZD1390] (first compound max 10 µM, 7x7, partner max 0.3 µM)	-0.0513	-0.0498	-0.0319	-0.0347	-0.0688	-0.0487	-0.0603	-0.0485	-0.0439	-0.0453	-0.0341	-0.0458	-0.0466	-0.0572	-0.0693	-0.0395	-0.0626	–	-0.0735	-0.0215
NC1(C(=O)N[C@@H](CCO)c2ccc(Cl)cc2)CCN(c2ncnc3[nH]ccc23)CC1 [Capivasertib] + CC(C)n1c(=O)n(C)c2cnc3cc(F)c(-c4ccc(OCCCN5CCCCC5)nc4)cc3c21 [AZD1390] (first compound max 10 µM, 7x7, partner max 0.3 µM)	-0.0228	-0.0405	-0.0017	-0.0537	-0.0849	-0.0323	-0.0908	-0.0314	-0.0238	-0.0263	-0.0428	-0.0275	-0.0698	-0.0661	-0.0859	-0.11	-0.044	–	-0.04	-0.0943

From the supplement of paper PMC11061612
